This note sets out measurements from patent US8258116B2, “Combination therapy for the treatment of HCV infection” (Vertex Pharmaceuticals Incorporated, priority 2007, dated 2012).

In assay [1] the test system is HCV replicon cells (wild-type clone 24-2, Huh-7). Description: 2-day Replicon assay with bDNA quantitation, checkerboard combination (Bliss independence / MacSynergy). The assay is classed as cell-based. The conditions noted are these: VX-950 in the checkerboard experiment with the named polymerase inhibitor, read-out: VX-950 IC50. As for the experimental part:
Huh-7 cells were propagated in Dulbecco's modified Eagle's medium (DMEM, JRH Biosciences, Lenexa, Kans.) supplemented with 10% heat-inactivated FBS (fetal bovine serum), 2 mM L-glutamine, and nonessential amino acids (JRH). The cells were transfected with an in vitro transcribed HCV replicon RNA identical to replicon 1377neo/NS3-3′/wt as described by Lohmann et al. (1999). Stable cell clones were selected and maintained in the presence of 250 μg/mL G418 (Invitrogen, Carlsbad, Calif.). One of the clones, 24-2, was used as the wild-type in the subsequent HCV replicon assays for combination studies. The HCV NS3 protease variant replicons were constructed in the background of the mADE wild-type replicon as described previously [Chao Lin et al., “In Vitro Resistance Studies of Hepatitis C Virus Serine Protease Inhibitors, VX-950 and BILN 2061: Structural Analysis Indicates Different Resistance Mechanisms,” Journal of Biological Chemistry, 279(17); pp. 17508-17514 (2004)]. The replicon cells were propagated in DMEM supplemented with 10% FBS, 2 mM L-glutamine, nonessential amino acids, and 250 μg/mL G418. The cells were split twice per week in fresh media upon reaching confluence. There are approximately 200-300 copies of HCV RNA per 24-2 replicon cell.
(§1) HCV replicon RNA from cells was measured using the Quantigene Discover XL kit (Panomics Inc., Fremont Calif.) as per the manufacturer's instructions. Briefly, compound-treated replicon cells were lysed and immobilized on to capture plates using HCV specific oligonucleotides (designed based on the 5′ UTR region of HCV 1b genome sequence AJ238799 in the GenBank database) over night and the relative amounts of captured RNA was measured using oligonucleotide probe sets as per the manufacturer's instructions.
(§2) On the day prior to the assay, 10,000 replicon cells were plated per well of a 96-well plate and allowed to attach and grow overnight in DMEM (Invitrogen, Carlsbad, Calif.) supplemented with 10% heat-inactivated FBS (JRH Biosciences, Lenexa, Kans.), 2 mM L-glutamine (Invitrogen), nonessential amino acids (Invitrogen) and 250 μg/ml G418 (Invitrogen). Next day, the medium was removed and antiviral agents that were serially diluted in DMEM containing 2% FBS and 0.5% DMSO (Sigma Chemical Co., St. Louis, Mo.) without G418, was added. The replicon cells were incubated with the antiviral agents for 48 h. HCV replicon RNA from cells was measured using the Quantigene Discover XL kit (Panomics Inc., Fremont Calif.) as per the manufacturer's instructions. Briefly, compound-treated replicon cells were lysed and immobilized onto capture plates using HCV specific oligonucleotides overnight and the relative amounts of captured RNA was measured using oligonucleotide probe sets as per the manufacturer's instructions. Unless indicated otherwise, each data point represents the average of three replicates. The IC50 is the concentration of the compound at which the HCV replicon RNA level in cells is reduced by 50% as compared to the untreated replicon cell controls. To monitor the effect of compounds on cell proliferation or cell viability, replicon cells were treated with serially diluted compounds for 48 h, after which cell viability was determined using a CellTiter Glo assay (Promega, Madison, Wis.). Each CC50 is derived from at least two replicates and is the concentration of the compound at which the number of viable cells is reduced by 50% as compared to untreated cell controls. The IC50 and CC50 was determined using 4-parameter curve fitting in the SoftMax Pro program (Molecular Devices, Sunnyvale, Calif.).
The effects of drug-drug combinations were evaluated using the Bliss independence model [W. R. Greco et al., “The search for synergy: a critical review from a response surface perspective,” Pharmacol. Rev., 47, pp. 331-385 (1995)]. The experimental data were analyzed by using MacSynergy, a three-dimensional analytical method developed by Prichard and Shipman [M. N. Prichard and C. […]

For assay [2], the system named is HCV NS3 protease variant replicon A156T. Description: 2-Day HCV Replicon IC50 Assay, A156T. The assay is classed as cell-based. As for the experimental part:
Huh-7 cells were propagated in Dulbecco's modified Eagle's medium (DMEM, JRH Biosciences, Lenexa, Kans.) supplemented with 10% heat-inactivated FBS (fetal bovine serum), 2 mM L-glutamine, and nonessential amino acids (JRH). The cells were transfected with an in vitro transcribed HCV replicon RNA identical to replicon 1377neo/NS3-3′/wt as described by Lohmann et al. (1999). Stable cell clones were selected and maintained in the presence of 250 μg/mL G418 (Invitrogen, Carlsbad, Calif.). […] The HCV NS3 protease variant replicons were constructed in the background of the mADE wild-type replicon as described previously [Chao Lin et al., “In Vitro Resistance Studies of Hepatitis C Virus Serine Protease Inhibitors, VX-950 and BILN 2061: Structural Analysis Indicates Different Resistance Mechanisms,” Journal of Biological Chemistry, 279(17); pp. 17508-17514 (2004)]. The replicon cells were propagated in DMEM supplemented with 10% FBS, 2 mM L-glutamine, nonessential amino acids, and 250 μg/mL G418. The cells were split twice per week in fresh media upon reaching confluence. There are approximately 200-300 copies of HCV RNA per 24-2 replicon cell.
as §1, §2
The sensitivity of NS3 protease variants to ribavirin and interferon was assessed in a 2-Day HCV Replicon IC50 Assay.

pIC50: −log10 of the molar value. Where two headings read alike, the source gives them in different places.

`CCC[C@H](NC(=O)[C@@H]1[C@H]2CCC[C@H]2CN1C(=O)[C@@H](NC(=O)[C@@H](NC(=O)c1cnccn1)C1CCCCC1)C(C)(C)C)C(=O)C(=O)NC1CC1` [VX-950]: the pIC50 was 6.51 in assay [1] (Hepatitis C virus, Huh-7, 48 h); 6.38 in assay [1] (48 h, with polymerase inhibitor of Formula I); 6.47 in assay [1] (48 h, with polymerase inhibitor of Formula II); under 4.52 in assay [2] (Hepatitis C virus, read-out: Avg. IC50 ± STDEV). Further, in assay [2] (A156T, ratio of mutant IC50 to Wild type IC50 for the same inhibitor), the “Fold Change” value was over 65.2.
